Assay results published in patent publication US10577362B2, “Substituted 2, 4-diamino-quinoline derivatives for use in the treatment of proliferative diseases” (GENOSCIENCE PHARMA, priority 2016, dated 2020).

What was measured:
[1] = test system: MOLM-14 (acute myeloid leukemia) cell line; test: CellTiter-Glo luminescent cell viability assay, MOLM-14; assay type: cell-based, human; details: Homo sapiens; for viability at 4 µM: MOLM-14, compound at 4 μM; for viability at 4 µM / viability at 10 µM: 72 h; for viability at 10 µM: MOLM-14, compound at 10 μM; for EC50: MOLM-14 cell line, 72 h incubation, CellTiter-Glo, read-out: EC50, growth inhibition of MOLM-14
Procedure, shortened: (§1)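 In a 72 h viability assay, compound-treated cells were compared against matched H2O or DMSO diluent controls by luminescence, points in at least duplicate.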

[2] = test system: A375 (malignant melanoma) cell line; test: CellTiter-Glo luminescent cell viability assay, A375; assay type: cell-based, human; details: Homo sapiens, A-375; for viability at 4 µM: A375, compound at 4 μM; for viability at 4 µM / viability at 10 µM: 72 h; for viability at 10 µM: A375, compound at 10 μM; for EC50: A375 cell line, 72 h incubation, CellTiter-Glo, read-out: EC50, growth inhibition of A375
Procedure, shortened: as §1

[3] = test system: HCT-116 (colorectal carcinoma) cell line; test: CellTiter-Glo luminescent cell viability assay, HCT-116; assay type: cell-based, human; details: Homo sapiens; for viability at 4 µM: HCT-116, compound at 4 μM; for viability at 4 µM / viability at 10 µM: 72 h; for viability at 10 µM: HCT-116, compound at 10 μM; for EC50: HCT-116 cell line, 72 h incubation, CellTiter-Glo, read-out: EC50, growth inhibition of HCT-116
Procedure, shortened: as §1

[4] = test system: Huh7 (hepatocellular carcinoma) cell line; test: CellTiter-Glo luminescent cell viability assay, Huh7; assay type: cell-based, human; details: Homo sapiens, Huh-7; for viability at 4 µM: Huh7, compound at 4 μM; for viability at 4 µM / viability at 10 µM: 72 h; for viability at 10 µM: Huh7, compound at 10 μM; for EC50: Huh7 cell line, 72 h incubation, CellTiter-Glo, read-out: EC50, growth inhibition of Huh7
Procedure, shortened: as §1

[5] = test system: 786-O (renal adenocarcinoma) cell line; test: CellTiter-Glo luminescent cell viability assay, 786-O; assay type: cell-based, human; details: Homo sapiens, 786-0; for EC50: 786-O cell line, 72 h incubation, CellTiter-Glo, read-out: EC50, growth inhibition of 786-O; for viability at 4 µM / viability at 10 µM: 786-O, 72 h; for viability at 4 µM: compound at 4 μM; for viability at 10 µM: compound at 10 μM
Procedure, shortened: as §1

[6] = test system: HepG2 (hepatocellular carcinoma) cell line; test: CellTiter-Glo luminescent cell viability assay, HepG2; assay type: cell-based, human; details: Homo sapiens; for viability at 4 µM / viability at 10 µM: HepG2, HepG, 72 h; for viability at 4 µM: compound at 4 μM; for viability at 10 µM: compound at 10 μM; for EC50: HepG2 cell line, 72 h incubation, CellTiter-Glo, read-out: EC50, growth inhibition of HepG2
Procedure, shortened: as §1

[7] = test system: PANC-1 (prancreatic carcinoma) cell line; test: CellTiter-Glo luminescent cell viability assay, PANC-1; assay type: cell-based; details: Homo sapiens; for viability at 4 µM: PANC-1, 4 μM; for viability at 4 µM / viability at 10 µM: 72 h, % of signal of diluent-treated cultures; for viability at 10 µM: PANC-1, 10 μM; for EC50: PANC-1 cell line, 72 h incubation, CellTiter-Glo, read-out: EC50 (growth inhibition assay of PANC-1 cell line)
Procedure, shortened: as §1

SMILES	viability at 4 µM [1] [%]	viability at 10 µM [1] [%]	EC50 [1] [µM]	viability at 4 µM [2] [%]	viability at 10 µM [2] [%]	EC50 [2] [µM]	viability at 4 µM [3] [%]	viability at 10 µM [3] [%]	EC50 [3] [µM]	viability at 4 µM [4] [%]	viability at 10 µM [4] [%]	EC50 [4] [µM]	EC50 [5] [µM]	viability at 4 µM [5] [%]	viability at 10 µM [5] [%]	viability at 4 µM [6] [%]	viability at 10 µM [6] [%]	EC50 [6] [µM]	viability at 4 µM [7] [%]	viability at 10 µM [7] [%]	also measured
CC(C)(C)NC1CCN(c2c(C#N)c(Nc3ccc(F)cc3)nc3ccccc23)CC1 [Compound 3260CN, 2-(4-fluorophenylamino)-3-cyano-4-[4-(tert-butylamino)piperidin-1-yl]quinoline]	86.7	0.9	5 to 10	2.2	0.4	0.5 to 5	1.2	0.3	0.5 to 5	50.7	0.7	5 to 10	0.5 to 5	17.5	0.3	49.1	0.4	0.5 to 5	84.1	39.1	EC50 [7]: 5 to 10 µM
CN1CCC(NC2CCCN(c3c(C#N)c(NCc4ccc(Cl)cc4)nc4ccccc34)C2)CC1 (stereo not shown) [Compound 3162CN, 2-(4-chlorobenzylamino)-3-cyano-4-{3-[(1-methylpiperidin-4-yl)amino]piperidin-1-yl}quinoline]	0.5	0.3	0.5 to 5	0.4	0.2	0.5 to 5	0.3	0.2	0.5 to 5	0.5	0.2	0.5 to 5	0.5 to 5	0.5	0.3	0.3	0.2	0.5 to 5	51.6	0.4	
N#Cc1c(NCc2ccc(Cl)cc2)nc2ccccc2c1N1CCCC(N2CCCC2)C1 (stereo not shown) [Compound 176CN, 2-(4-chlorobenzylamino)-3-cyano-4-[3-(pyrrolidin-1-yl)piperidin-1-yl]quinoline]	95.6	75.2		114	65.4		84.3	42.7		96.4	64.7			89.8	39.3	93	60.2		93.2	70.6	
N#Cc1c(NCc2ccc(Cl)cc2)nc2ccccc2c1N1CCC(NC2CCCC2)CC1 [Compound 3178CN, 2-(4-chlorobenzylamino)-3-cyano-4-[4-(cyclopentylamino)piperidin-1-yl]quinoline]	90.4	0.7	0.5 to 5	0.4	0.5	0.5 to 5	0.3	0.4	0.5 to 5	58.8	0.6	0.5 to 5	0.5 to 5	1.3	0.5	6	0.5	0.5 to 5	85.8	0.8	EC50 [7]: 5 to 10 µM
